# What was measured:
# JAK2 = target: T1, JAK2 (Homo sapiens, UniProt O60674); assay: Kinobeads assay, JAK2 (competition binding in cell lysate, dot blot detection); settings: mixed Molt4/Ramos lysate
# T1 construct: endogenous in cells; host or cells: Molt4 (ATCC CRL-1582) and Ramos (ATCC CRL-1596) cell lysate; mixed Molt4/Ramos lysate 1:2
# Method: (§1) The compounds of the present invention as described in the previous examples were tested in a Kinobeads™ assay as described for ZAP-70 (WO-A 2007/137867). Briefly, test compounds (at various concentrations) and the affinity matrix with the immobilized aminopyrido-pyrimidine ligand 24 were added to cell lysate aliquots and allowed to bind to the proteins in the lysate sample. After the incubation time the beads with captured proteins were separated from the lysate. Bound proteins were then eluted and the presence of JAK2 and JAK3 was detected and quantified using specific antibodies in a dot blot procedure and the Odyssey infrared detection system. Dose response curves for individual kinases were generated and IC50 values calculated. Kinobeads™ assays for ZAP-70 (WO-A 2007/137867) and for kinase selectivity profiling (WO-A 2006/134056) have been previously described.
# (§2) 5×DP buffer: 250 mM Tris-HCl pH 7.4, 25% Glycerol, 7.5 mM MgCl2, 750 mM NaCl, 5 mM Na3VO4; filter the 5×DP buffer through a 0.22 μm filter and store in aliquots at −80° C. The 5×DP buffer is diluted with H2O to 1×DP buffer containing 1 mM DTT and 25 mM NaF.
# (§3) Stock solutions of test compounds were prepared in DMSO. In a 96 well plate 30 μL solution of diluted test compounds at 5 mM in DMSO were prepared. Starting with this solution a 1:3 dilution series (9 steps) was prepared. For control experiments (no test compound) a buffer containing 2% DMSO was used.
# (§4) Molt4 cells (ATCC catalogue number CRL-1582) and Ramos cells (ATCC catalogue number CRL-1596) were grown in 1 L Spinner flasks (Integra Biosciences, #182101) in suspension in RPMI 1640 medium (Invitrogen, #21875-034) supplemented with 10% Fetal Bovine Serum (Invitrogen) at a density between 0.15×10^6 and 1.2×10^6 cells/mL. Cells were harvested by centrifugation, washed once with 1×PBS buffer (Invitrogen, #14190-094) and cell pellets were frozen in liquid nitrogen and subsequently stored at −80° C. Cells were homogenized in a Potter S homogenizer in lysis buffer: 50 mM Tris-HCl, 0.8% NP40, 5% glycerol, 150 mM NaCl, 1.5 mM MgCl2, 25 mM NaF, 1 mM sodium vanadate, 1 mM DTT, pH 7.5. One complete EDTA-free tablet (protease inhibitor cocktail, Roche Diagnostics, 1873580) per 25 mL buffer was added. The material was dounced 10 times using a mechanized POTTER S, transferred to 50 mL falcon tubes, incubated for 30 minutes on ice and spun down for 10 minutes at 20,000 g at 4° C. (10,000 rpm in Sorvall SLA600, precooled). The supernatant was transferred to an ultracentrifuge (UZ)-polycarbonate tube (Beckmann, 355654) and spun for 1 hour at 100.000 g at 4° C. (33.500 rpm in Ti50.2, precooled). The supernatant was transferred again to a fresh 50 mL falcon tube, the protein concentration was determined by a Bradford assay (BioRad) and samples containing 50 mg of protein per aliquot were prepared. The samples were immediately used for experiments or frozen in liquid nitrogen and stored frozen at −80° C.
# (§5) Cell lysate (approximately 50 mg protein per plate) was thawed in a water bath at room temperature and then stored on ice. To the thawed cell lysate 1×DP 0.8% NP40 buffer containing protease inhibitors (1 tablet for 25 mL buffer; EDTA-free protease inhibitor cocktail; Roche Diagnostics 1873580) was added in order to reach a final protein concentration of 10 mg/mL total protein. The diluted cell lysate was stored on ice. Mixed Molt4/Ramos lysate was prepared by combining one volume of Molt4 lysate and two volumes of Ramos lysate (ratio 1:2).
# (§6) Plates were sealed and incubated for 3 hours in a cold room on a plate shaker (Heidolph tiramax 1000) at 750 rpm. Afterwards the plate was washed 3 times with 230 μL washing buffer (1×DP 0.4% NP40). The filter plate was placed on top of a collection plate (Greiner bio-one, PP-microplate 96 well V-shape, 65120) and the beads were then eluted with 20 μL of sample buffer (100 mM Tris, pH 7.4, 4% SDS, 0.00025% bromophenol blue, 20% glycerol, 50 mM DTT). […]
# JAK3 = target: T2, JAK3 (Homo sapiens, UniProt P52333); assay: Kinobeads assay, JAK3 (competition binding in cell lysate, dot blot detection); settings: mixed Molt4/Ramos lysate
# T2 construct: endogenous in cells; host or cells: Molt4 (ATCC CRL-1582) and Ramos (ATCC CRL-1596) cell lysate; mixed Molt4/Ramos lysate 1:2
# T2 sequence (P52333 1-1124): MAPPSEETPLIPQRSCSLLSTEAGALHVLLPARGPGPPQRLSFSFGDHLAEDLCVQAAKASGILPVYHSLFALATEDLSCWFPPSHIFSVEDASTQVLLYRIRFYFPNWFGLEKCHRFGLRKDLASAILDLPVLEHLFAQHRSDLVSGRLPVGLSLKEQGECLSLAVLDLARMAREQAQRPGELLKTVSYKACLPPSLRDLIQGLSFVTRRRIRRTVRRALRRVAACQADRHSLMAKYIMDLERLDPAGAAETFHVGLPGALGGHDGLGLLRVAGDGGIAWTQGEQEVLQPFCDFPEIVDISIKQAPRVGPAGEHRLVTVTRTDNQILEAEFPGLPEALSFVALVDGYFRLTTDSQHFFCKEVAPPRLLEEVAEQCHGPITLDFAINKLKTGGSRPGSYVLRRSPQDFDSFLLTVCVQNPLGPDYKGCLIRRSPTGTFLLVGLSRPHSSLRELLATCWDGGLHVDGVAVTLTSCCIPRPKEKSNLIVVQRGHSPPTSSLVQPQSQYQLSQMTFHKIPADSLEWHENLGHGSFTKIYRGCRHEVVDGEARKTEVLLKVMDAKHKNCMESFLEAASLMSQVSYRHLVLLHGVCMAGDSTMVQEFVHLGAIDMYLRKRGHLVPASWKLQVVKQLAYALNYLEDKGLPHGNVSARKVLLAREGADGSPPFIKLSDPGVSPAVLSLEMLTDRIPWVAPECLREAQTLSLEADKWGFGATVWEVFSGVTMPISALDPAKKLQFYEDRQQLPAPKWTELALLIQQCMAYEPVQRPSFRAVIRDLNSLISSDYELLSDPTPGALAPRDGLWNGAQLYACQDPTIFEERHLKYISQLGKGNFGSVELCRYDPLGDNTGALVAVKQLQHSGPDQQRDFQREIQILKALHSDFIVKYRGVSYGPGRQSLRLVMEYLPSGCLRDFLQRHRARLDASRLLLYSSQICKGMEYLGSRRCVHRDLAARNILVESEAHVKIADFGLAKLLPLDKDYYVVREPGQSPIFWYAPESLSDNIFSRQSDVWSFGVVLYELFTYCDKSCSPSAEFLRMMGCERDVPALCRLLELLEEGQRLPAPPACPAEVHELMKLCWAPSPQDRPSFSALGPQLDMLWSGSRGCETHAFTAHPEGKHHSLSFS
# Method: as §1, §2, §3, §4, §5, §6
# T1 sequence (O60674 whole entry): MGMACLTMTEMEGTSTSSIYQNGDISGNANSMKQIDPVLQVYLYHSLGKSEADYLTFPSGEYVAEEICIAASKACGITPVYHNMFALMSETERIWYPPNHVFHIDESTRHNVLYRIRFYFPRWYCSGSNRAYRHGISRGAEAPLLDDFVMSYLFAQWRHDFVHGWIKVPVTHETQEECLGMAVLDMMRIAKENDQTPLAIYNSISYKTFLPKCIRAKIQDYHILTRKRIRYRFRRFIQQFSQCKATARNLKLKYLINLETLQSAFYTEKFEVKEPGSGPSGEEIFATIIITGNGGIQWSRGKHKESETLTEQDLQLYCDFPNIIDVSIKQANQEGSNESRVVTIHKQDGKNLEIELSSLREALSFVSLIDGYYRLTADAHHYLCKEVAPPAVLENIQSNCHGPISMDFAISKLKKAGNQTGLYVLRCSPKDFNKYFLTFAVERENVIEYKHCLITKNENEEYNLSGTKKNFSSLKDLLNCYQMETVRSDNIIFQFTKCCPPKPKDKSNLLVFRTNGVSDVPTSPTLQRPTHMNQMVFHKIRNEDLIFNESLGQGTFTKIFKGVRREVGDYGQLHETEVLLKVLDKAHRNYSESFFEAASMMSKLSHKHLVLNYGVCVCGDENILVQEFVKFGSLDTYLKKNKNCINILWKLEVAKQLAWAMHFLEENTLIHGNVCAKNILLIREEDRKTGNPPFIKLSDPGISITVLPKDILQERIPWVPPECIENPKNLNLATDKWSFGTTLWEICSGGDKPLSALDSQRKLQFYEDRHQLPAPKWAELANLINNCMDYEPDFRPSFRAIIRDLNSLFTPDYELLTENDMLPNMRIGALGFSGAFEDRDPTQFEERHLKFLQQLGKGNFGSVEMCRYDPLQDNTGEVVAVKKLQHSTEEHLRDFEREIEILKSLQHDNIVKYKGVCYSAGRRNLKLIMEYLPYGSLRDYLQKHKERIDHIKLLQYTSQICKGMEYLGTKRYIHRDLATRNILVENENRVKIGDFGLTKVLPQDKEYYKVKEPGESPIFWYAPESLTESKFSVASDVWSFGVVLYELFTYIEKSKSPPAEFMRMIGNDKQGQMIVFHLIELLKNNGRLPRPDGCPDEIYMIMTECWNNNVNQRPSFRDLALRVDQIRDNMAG
SMILES,IC50 (JAK2) [nM],IC50 (JAK3) [nM]
"Cn1cc(Nc2ncc3cnn(CC4CCCNC4)c3n2)cn1 (stereo not drawn) [Example 5, N-(1-methyl-1H-pyrazol-4-yl)-1-(piperidin-3-ylmethyl)-1H-pyrazolo[3,4-d]pyrimidin-6-amine]",1000 to 10000,100 to 1000
"CS(=O)(=O)N1CCCC(Cn2ncc3cnc(Nc4cnn(CC(F)F)c4)nc32)C1 (stereo not drawn) [Example 4, N-(1-(2,2-difluoroethyl)-1H-pyrazol-4-yl)-1-((1-(methylsulfonyl)piperidin-3-yl)methyl)-1H-pyrazolo[3,4-d]pyrimidin-6-amine]",1000 to 10000,< 100
"CC1CCC(n2ncc3cnc(Nc4cnn(C)c4)nc32)C1 (mixture of isomers) [Example 15, N-(1-Methyl-1H-pyrazol-4-yl)-1-(3-methylcyclopentyl)-1H-pyrazolo[3,4-d]pyrimidin-6-amine]",1000 to 10000,100 to 1000
"CC(C)S(=O)(=O)N1CCCC(Cn2ncc3cnc(Nc4cnn(CC(F)F)c4)nc32)C1 (stereo not drawn) [Example 61, N-(1-(2,2-difluoroethyl)-1H-pyrazol-4-yl)-1-((1-(isopropylsulfonyl)piperidin-3-yl)methyl)-1H-pyrazolo[3,4-d]pyrimidin-6-amine]",1000 to 10000,< 100
"Cn1cc(Nc2ncc3cnn(CC4CCCN(CCC#N)C4)c3n2)cn1 (stereo not drawn) [Example 41, 3-(3-((6-((1-methyl-1H-pyrazol-4-yl)amino)-1H-pyrazolo[3,4-d]pyrimidin-1-yl)methyl)piperidin-1-yl)propanenitrile]",1000 to 10000,< 100
"Cn1cc(Nc2ncc3cnn(CC4CCCN(CCO)C4)c3n2)cn1 (stereo not drawn) [Example 66, 2-(3-((6-((1-methyl-1H-pyrazol-4-yl)amino)-1H-pyrazolo[3,4-d]pyrimidin-1-yl)methyl)piperidin-1-yl)ethanol]",1000 to 10000,< 100
"CC(C)NC(=O)CN1CCC(Cn2ncc3cnc(Nc4cnn(C)c4)nc32)C1 (stereo not drawn) [Example 68, N-isopropyl-2-(3-((6-((1-methyl-1H-pyrazol-4-yl)amino)-1H-pyrazolo[3,4-d]pyrimidin-1-yl)methyl)pyrrolidin-1-yl)acetamide]",> 10000,100 to 1000
"COCCCN1CCCC(Cn2ncc3cnc(Nc4cnn(C)c4)nc32)C1 (stereo not drawn) [Example 58, 1-((1-(3-methoxypropyl)piperidin-3-yl)methyl)-N-(1-methyl-1H-pyrazol-4-yl)-1H-pyrazolo[3,4-d]pyrimidin-6-amine]",> 10000,100 to 1000
"C[C@H]1CCCC[C@H]1n1ncc2cnc(Nc3cnn(C)c3)nc21 (racemic) [Example 11, Rac-cis-N-(1-methyl-1H-pyrazol-4-yl)-1-(2-methylcyclohexyl)-1H-pyrazolo[3,4-d]pyrimidin-6-amine]",1000 to 10000,100 to 1000
"N#CCN1CCCC(Cn2ncc3cnc(Nc4cnn(CC(F)F)c4)nc32)C1 (stereo not drawn) [Example 60, 2-(3-((6-((1-(2,2-difluoroethyl)-1H-pyrazol-4-yl)amino)-1H-pyrazolo[3,4-d]pyrimidin-1-yl)methyl)piperidin-1-yl)acetonitrile]",1000 to 10000,100 to 1000
"Cn1cc(Nc2ncc3cnn(CC4CCCN(C(=O)C5CCOCC5)C4)c3n2)cn1 (stereo not drawn) [Example 28, (3-((6-((1-methyl-1H-pyrazol-4-yl)amino)-1H-pyrazolo[3,4-d]pyrimidin-1-yl)methyl)piperidin-1-yl)(tetrahydro-2H-pyran-4-yl)methanone]",> 10000,100 to 1000
"Cn1cc(Nc2ncc3cnn(CC4CCCN(C(=O)OCCF)C4)c3n2)cn1 (stereo not drawn) [Example 44, 2-fluoroethyl 3-((6-((1-methyl-1H-pyrazol-4-yl)amino)-1H-pyrazolo[3,4-d]pyrimidin-1-yl)methyl)piperidine-1-carboxylate]",> 10000,100 to 1000

# Results, then the molecule that gave them:
IC50 (JAK2) [nM],IC50 (JAK3) [nM],SMILES
> 10000,100 to 1000,"Cn1cc(Nc2ncc3cnn(C4CCOCC4)c3n2)cn1 [Example 9, N-(1-methyl-1H-pyrazol-4-yl)-1-(tetrahydro-2H-pyran-4-yl)-1H-pyrazolo[3,4-d]pyrimidin-6-amine]"
1000 to 10000,100 to 1000,"Cn1cc(Nc2ncc3cnn(CCCNS(C)(=O)=O)c3n2)cn1 [Example 2, N-(3-(6-(1-methyl-1H-pyrazol-4-ylamino)-1H-pyrazolo[3,4-d]pyrimidin-1-yl)propyl)methanesulfonamide]"
> 10000,< 100,"COCCN1CCCC(Cn2ncc3cnc(Nc4cnn(C)c4)nc32)C1 (stereo not drawn) [Example 35, 1-((1-(2-methoxyethyl)piperidin-3-yl)methyl)-N-(1-methyl-1H-pyrazol-4-yl)-1H-pyrazolo[3,4-d]pyrimidin-6-amine]"
1000 to 10000,< 100,"Cn1cc(Nc2ncc3cnn(CC4CCCN(S(=O)(=O)C5CC5)C4)c3n2)cn1 (stereo not drawn) [Example 33, 1-((1-(cyclopropylsulfonyl)piperidin-3-yl)methyl)-N-(1-methyl-1H-pyrazol-4-yl)-1H-pyrazolo[3,4-d]pyrimidin-6-amine]"
1000 to 10000,100 to 1000,"Cn1cc(Nc2ncc3cnn(C4CCN(S(C)(=O)=O)CC4)c3n2)cn1 [Example 3, N-(1-methyl-1H-pyrazol-4-yl)-1-(1-(methylsulfonyl)piperidin-4-yl)-1H-pyrazolo[3,4-d]pyrimidin-6-amine]"
> 10000,1000 to 10000,"Cn1cc(Nc2ncc3cnn(C4CCNCC4)c3n2)cn1 [Example 12, N-(1-methyl-1H-pyrazol-4-yl)-1-(piperidin-4-yl)-1H-pyrazolo[3,4-d]pyrimidin-6-amine]"
